The subject of one data set is RPMI-8226. The data set is described as follows: Growth inhibition of human RPMI8226 cells after 72 hrs by MTS/PMS assay. In kind it is functional. The settings on record: RPMI-8226, 72 h.
For data set [1], the target named is Heat shock protein HSP 90-alpha (Homo sapiens, UniProt P07900). The data set is described as follows: Displacement of FITC-GDA from Hsp90alpha (unknown origin) after 24 hrs by fluorescence polarization assay. The settings on record: read-out: Kd(app).
The next data set addresses Endoplasmin (Canis lupus familiaris, UniProt P41148). In words: Displacement of FITC-GDA from recombinant canine Grp94 expressed in baculovirus infected Sf21 insect cells after 24 hrs by fluorescence polarization assay. The settings on record: read-out: Kd(app). In general terms: In fluorescence polarisation assays a small probe gives low polarisation when free and higher when bound to something large.

The target of data set [2] is T1, Heat shock protein HSP90 (Homo sapiens, UniProt P07900+P08238). In words: Inhibition of Hsp90 in human RPMI8226 cells assessed as induction of Hsp70 expression at 0.75 to 7.5 uM after 24 hrs by Western blot analysis. In kind it is cell-based. On the technique in general: Immunoblotting shows a protein as a band on a membrane.
Data set [3] deals with T1, Heat shock protein HSP90. In words: Inhibition of Hsp90 in human RPMI8226 cells assessed as induction of Akt degradation at 0.75 to 7.5 uM after 24 hrs by Western blot analysis. Format: cell-based.

The GI50 is the concentration at which growth is held to half of that of the control. Low readings indicate greater sensitivity of the cells, high ones lower sensitivity of the cells.

Sequence of Endoplasmin (P41148 whole entry): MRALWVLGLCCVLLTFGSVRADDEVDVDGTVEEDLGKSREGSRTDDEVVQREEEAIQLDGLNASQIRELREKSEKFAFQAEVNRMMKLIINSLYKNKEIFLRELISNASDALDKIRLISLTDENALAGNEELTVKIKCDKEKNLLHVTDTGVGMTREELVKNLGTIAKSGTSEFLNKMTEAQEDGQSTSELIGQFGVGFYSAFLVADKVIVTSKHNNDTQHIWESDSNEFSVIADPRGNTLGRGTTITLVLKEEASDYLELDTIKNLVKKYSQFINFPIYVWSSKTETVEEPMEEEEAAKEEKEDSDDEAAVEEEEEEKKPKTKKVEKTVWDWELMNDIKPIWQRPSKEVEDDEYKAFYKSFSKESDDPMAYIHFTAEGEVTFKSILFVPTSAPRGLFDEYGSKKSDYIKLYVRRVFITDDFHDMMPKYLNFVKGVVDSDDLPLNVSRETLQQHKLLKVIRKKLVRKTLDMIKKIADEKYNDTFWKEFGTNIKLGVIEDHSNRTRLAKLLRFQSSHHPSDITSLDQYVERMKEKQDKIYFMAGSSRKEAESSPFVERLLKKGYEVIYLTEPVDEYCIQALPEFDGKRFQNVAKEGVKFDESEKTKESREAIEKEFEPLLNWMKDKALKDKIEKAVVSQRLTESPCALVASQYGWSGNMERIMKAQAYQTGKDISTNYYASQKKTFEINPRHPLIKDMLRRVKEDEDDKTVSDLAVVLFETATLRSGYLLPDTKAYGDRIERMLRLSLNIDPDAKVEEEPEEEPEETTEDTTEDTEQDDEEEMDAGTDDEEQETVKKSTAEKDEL

In turn, `COC(=O)c1c(O)cc(O)c(Cl)c1CCc1nccn1Cc1ccccc1` gave a GI50 in the data set on RPMI-8226 of 10.2 µM.

Regarding `Cc1ccc(Sc2cc(C(=O)N3Cc4ccccc4C3)c(O)cc2O)cc1C`, the Kd in data set [1] turned out to be 0.066 µM; at Endoplasmin, 0.021 µM.

For the compound `O=C(c1cc(Sc2ccccc2)c(O)cc1O)N1Cc2ccccc2C1`, the figures for the Kd (in data set [1]; at Endoplasmin) were 0.026 µM and 0.013 µM, respectively.

Take `O=C(c1cc(Sc2ccccc2O)c(O)cc1O)N1Cc2ccccc2C1`: the Kd in data set [1] was 0.065 µM; at Endoplasmin it was 0.029 µM.

On to `O=C(c1cc(Sc2ccc(Cl)cc2Cl)c(O)cc1O)N1Cc2ccccc2C1`, for which the Kd in data set [1] is 0.46 µM; on Endoplasmin, 0.059 µM.

For `Cc1ccc(Cc2cc(C(=O)N3Cc4ccccc4C3)c(O)cc2O)cc1`, the Kd (in data set [1]; at Endoplasmin) was 0.04 µM in each case. The GI50 with RPMI-8226 is 2.7 µM.

Turning to `O=C(c1cc(Sc2ccc(O)cc2)c(O)cc1O)N1Cc2ccccc2C1`, the Kd in data set [1] came to 0.052 µM; on Endoplasmin, 0.07 µM.

`O=C(c1cc(Br)c(O)cc1O)N1Cc2ccccc2C1`: the Kd at Endoplasmin turned out to be 0.02 µM.

Regarding `O=C(c1cc(-c2ccccc2)c(O)cc1O)N1Cc2ccccc2C1`, the Kd (in data set [1]; on Endoplasmin) was greater than 100 µM in each case. Also, the GI50 in the data set with RPMI-8226 was greater than 25 µM.

Consider `O=C(c1cc(N2CCc3ccccc32)c(O)cc1O)N1Cc2ccccc2C1`, for which the Kd in data set [1] was greater than 50 µM; on Endoplasmin, 9.89 µM.

Turning to `O=C(c1cc(Sc2cc(Cl)cc(Cl)c2)c(O)cc1O)N1Cc2ccccc2C1`, the values for the Kd (in data set [1]; at Endoplasmin) were 0.029 µM and 0.031 µM, respectively.

`Cc1ccc(Sc2cc(C(=O)N3Cc4ccccc4C3)c(O)cc2O)c(C)c1`: the Kd in data set [1] amounted to 0.07 µM; at Endoplasmin, 0.03 µM.

As for `O=C(c1cc(Cc2ccc(Cl)cc2)c(O)cc1O)N1Cc2ccccc2C1`, the figures for the Kd (in data set [1]; on Endoplasmin) were 0.06 µM and 0.013 µM, respectively. The compound also gave a GI50 with RPMI-8226 of 3 µM.

As for `COC(=O)c1cc(C(=O)N2Cc3ccccc3C2)c(O)cc1O`, the Kd (in data set [1]; at Endoplasmin) was greater than 10 µM in each case. The same compound displayed a GI50 in the data set on RPMI-8226 of 13.8 µM.

`O=C(c1cc(Cc2ccccc2Cl)c(O)cc1O)N1Cc2ccccc2C1`: the Kd was 0.2 µM in data set [1] and 0.06 µM on Endoplasmin.

For `O=C(c1cc(Cc2ccccc2)c(O)cc1O)N1Cc2ccccc2C1`, the Kd came out at 0.066 µM in data set [1] and 0.015 µM on Endoplasmin. The same compound displayed a GI50 in the data set with RPMI-8226 of 3.7 µM.

Consider `O=C(c1cc(Cc2ccc(F)cc2)c(O)cc1O)N1Cc2ccccc2C1`, for which the “inhibition (INH)” value on Heat shock protein HSP90 [2] and on Heat shock protein HSP90 [3] was “Not Active” each time. In addition, the Kd is 0.077 µM in data set [1] and 0.008 µM at Endoplasmin. Further, it took 1.4 µM to inhibit growth with RPMI-8226 by half (GI50).

In the case of `COc1cccc(Sc2cc(C(=O)N3Cc4ccccc4C3)c(O)cc2O)c1`, the Kd in data set [1] amounted to 0.037 µM; at Endoplasmin it was 0.034 µM. For the same compound, in the data set on RPMI-8226, the concentration for 50% growth inhibition (GI50) came out at 1.9 µM.

With `CCOC(=O)c1cc(C(=O)N2Cc3ccccc3C2)c(O)cc1O`, the values for the Kd (in data set [1]; on Endoplasmin) were 3.52 µM and 0.77 µM, respectively.

`Cc1ccc(C)c(Sc2cc(C(=O)N3Cc4ccccc4C3)c(O)cc2O)c1`: the values for the Kd (in data set [1]; at Endoplasmin) were 0.031 µM and 0.029 µM, respectively.

Regarding `COC1=C2C[C@@H](C)C[C@H](OC)[C@H](O)[C@@H](C)/C=C(\C)[C@H](OC(N)=O)[C@@H](OC)/C=C\C=C(/C)C(=O)NC(=CC1=O)C2=O` [GELDANAMYCIN], the GI50 in the data set with RPMI-8226 came out at 0.003 µM.

The record behind these values is ChEMBL document CHEMBL4130519, “Resorcinol-Based Grp94-Selective Inhibitors” (ACS Med Chem Lett, 2017).
